Values quoted from earlier work as cited in article PMC5861163 (European Journal of Nutrition, 2017).

Tested on: human faecal microbiota
Parameters: method as in PMID 26471074
Conditions: after 24 h of fermentation in vitro

demethoxycurcumin
degraded by the human faecal microbiota: ≤ 61%

O=C(/C=C/c1ccc(O)cc1)CC(=O)/C=C/c1ccc(O)cc1 [bisdemethoxycurcumin]
degraded by the human faecal microbiota: ≤ 87%
